Experimental findings from PubChem BioAssay AID588774 (The Scripps Research Institute Molecular Screening Center, 2011) are described below.

In general, inhibition refers to how much of the control response was suppressed.

SMILES strings stand for the structures. Active and inactive are the calls of the source.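 The calls were made as follows: active = target enzyme inhibited at least 50% at a set dose, and selective over every off-target enzyme by a set factor; inactive = weaker inhibition or too little selectivity.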

Assay [1] in a line: competitive ABPP of pPAFAH versus proteome hydrolases – biochemical, gel-based, FP-Rh fluorescence, complex proteome, SAR compounds, selectivity assay for pPAFAH inhibitor project, SAR follow-up (AID 588774).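 As to inhibition: 0% = DMSO-only band intensity and 100% = blank gel background.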 As to conditions: at 10 µM.
The next assay has as its system ABHD3. Described as above. As to conditions: at 10 µM, stronger effect = higher value.
Another assay concerns the target ABHD4 (UniProt Q8VD66). The assay is described as above. Particulars: at 10 µM, stronger effect = higher value.
In the next assay the test system is ABHD6. The description is as above. As to conditions: at 10 µM, stronger effect = higher value.
In another assay the test system is FAAH. The description is as above. As to conditions: stronger effect = higher value.
Another assay concerns LYPLA1. Described as above. As to conditions: at 10 µM, stronger effect = higher value.
The next assay deals with LYPLA2. The assay is described as above. Particulars: at 10 µM, stronger effect = higher value.
Assay [2] addresses Monoglyceride lipase (Mus musculus) (UniProt O35678). Described as above. As to conditions: MAGL, stronger effect = higher value.
The target of assay [3] is Platelet-activating factor acetylhydrolase (Mus musculus) (UniProt Q60963). The assay is described as above. As to conditions: pPAFAH, stronger effect = higher value.
The subject of a further assay is pPAFAH. Described as above. Particulars: anti-targets inhibited, at 10 µM.

Sequence of Monoglyceride lipase (Mus musculus) (O35678 whole entry, looked up): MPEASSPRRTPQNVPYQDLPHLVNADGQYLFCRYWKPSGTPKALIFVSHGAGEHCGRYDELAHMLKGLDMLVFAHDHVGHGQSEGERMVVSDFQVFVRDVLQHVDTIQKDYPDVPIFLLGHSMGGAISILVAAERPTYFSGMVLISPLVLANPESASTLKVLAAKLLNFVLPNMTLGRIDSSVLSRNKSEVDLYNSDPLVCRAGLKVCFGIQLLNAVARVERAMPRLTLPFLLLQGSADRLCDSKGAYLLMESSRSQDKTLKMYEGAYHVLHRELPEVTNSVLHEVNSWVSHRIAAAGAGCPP
Sequence of Platelet-activating factor acetylhydrolase (Mus musculus) (Q60963 whole entry, looked up): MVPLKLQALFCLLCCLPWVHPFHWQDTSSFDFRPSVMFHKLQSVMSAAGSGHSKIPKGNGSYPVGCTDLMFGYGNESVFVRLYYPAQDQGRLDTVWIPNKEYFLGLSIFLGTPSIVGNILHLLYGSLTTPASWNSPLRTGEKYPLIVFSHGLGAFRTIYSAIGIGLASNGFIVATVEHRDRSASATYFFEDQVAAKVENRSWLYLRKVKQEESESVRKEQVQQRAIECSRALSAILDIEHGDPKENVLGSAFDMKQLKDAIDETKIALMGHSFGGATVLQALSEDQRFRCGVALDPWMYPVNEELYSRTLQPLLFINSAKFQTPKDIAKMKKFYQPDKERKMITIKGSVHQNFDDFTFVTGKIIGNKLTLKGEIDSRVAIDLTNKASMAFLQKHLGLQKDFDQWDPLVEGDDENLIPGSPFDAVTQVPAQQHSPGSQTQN
Sequence of ABHD4 (Q8VD66 whole entry, looked up): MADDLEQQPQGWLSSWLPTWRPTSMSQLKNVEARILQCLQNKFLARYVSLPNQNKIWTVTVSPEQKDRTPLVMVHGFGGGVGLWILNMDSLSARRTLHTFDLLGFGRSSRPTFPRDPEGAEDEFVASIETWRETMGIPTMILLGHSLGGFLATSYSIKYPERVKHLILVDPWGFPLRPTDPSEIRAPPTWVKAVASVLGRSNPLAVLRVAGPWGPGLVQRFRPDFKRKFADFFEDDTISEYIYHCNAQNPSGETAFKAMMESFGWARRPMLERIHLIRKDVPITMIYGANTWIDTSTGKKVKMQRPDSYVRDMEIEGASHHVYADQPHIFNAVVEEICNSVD

In the case of `Cc1cc(N2CCN(C(=O)Oc3ccc([N+](=O)[O-])cc3)CC2)c2ccccc2n1`, the anti-target count in assay [1] (ABHD3, anti-targets inhibited) came to 2; in assay [1] (ABHD4, anti-targets inhibited) it was 2; in assay [1] (ABHD6, anti-targets inhibited), 2; in assay [1] (FAAH, anti-targets inhibited) it was 2; in assay [1] (LYPLA1, anti-targets inhibited) it was 2; in assay [1] (LYPLA2, anti-targets inhibited) it was 2. The anti-target count in assay [1] (MAGL, anti-targets inhibited) was found to be 2; with pPAFAH, 2. Also, the inhibition in the assay on ABHD3 was 0% (inactive); at ABHD4, 0% (inactive); with ABHD6, 0% (inactive); in the assay on FAAH (at 10 µM) it was 71% (inactive); in the assay with FAAH (inhibition, at 0.1 µM), 16%; in the assay with FAAH (inhibition, at 1 µM), 36%. Further, the inhibition with LYPLA1 was 0% (inactive); with LYPLA2, 0% (inactive); in [2] (at 10 µM), 64% (inactive); in assay [2] (inhibition, at 0.1 µM), 23%; in assay [2] (inhibition, at 1 µM) it was 51%; in assay [3] (at 10 µM) it was 100% (inactive). Besides, the inhibition is 47% in assay [3] (inhibition, at 0.1 µM) and 95% in assay [3] (inhibition, at 1 µM).
`Cc1cc(N2CCN(C(=O)Oc3ccc(C4CCCC4)cc3)CC2)c2ccccc2n1`: the anti-target count stood at 0 in assay [1] (ABHD3, anti-targets inhibited); 0 in [1] (ABHD4, anti-targets inhibited); 0 in assay [1] (ABHD6, anti-targets inhibited); 0 in assay [1] (FAAH, anti-targets inhibited); 0 in [1] (LYPLA1, anti-targets inhibited); 0 in assay [1] (LYPLA2, anti-targets inhibited). The anti-target count in assay [1] (MAGL, anti-targets inhibited) was 0; in the assay on pPAFAH it was 0. Further, the inhibition was 0% (inactive) with ABHD3; 27% (inactive) on ABHD4; 0% (inactive) with ABHD6; 0% (inactive) in the assay with FAAH (at 10 µM); 0% (inactive) with LYPLA1; 0% (inactive) with LYPLA2. For the same compound, the inhibition in [2] (at 10 µM) was 0% (inactive); in [3] (at 10 µM), 91% (inactive); in [3] (inhibition, at 0.1 µM), 28%; in [3] (inhibition, at 1 µM) it was 82%.
Turning to `Cc1cc(N2CCN(C(=O)Oc3ccc(-n4cccc4)cc3)CC2)c2ccccc2n1`, the anti-target count in [1] (ABHD3, anti-targets inhibited) is 0; in assay [1] (ABHD4, anti-targets inhibited) it was 0; in assay [1] (ABHD6, anti-targets inhibited), 0; in assay [1] (FAAH, anti-targets inhibited) it was 0; in [1] (LYPLA1, anti-targets inhibited), 0; in assay [1] (LYPLA2, anti-targets inhibited), 0. Further, the anti-target count amounted to 0 in assay [1] (MAGL, anti-targets inhibited) and 0 with pPAFAH. Further, the inhibition in the assay with ABHD3, at ABHD4, in the assay on ABHD6, in the assay with FAAH (at 10 µM), in the assay on LYPLA1 and in the assay on LYPLA2 was 0% (inactive) each time. Besides, the inhibition is 0% (inactive) in assay [2] (at 10 µM); 87% (inactive) in [3] (at 10 µM); 35% in [3] (inhibition, at 0.1 µM); 80% in assay [3] (inhibition, at 1 µM).
